From PubChem BioAssay AID296 (DTP/NCI, 2004)
“And” between values parts separate entries of the source, which are not always exact repeats. Equal entries are not always repeated. Results filed as inconclusive are left out.

Test system: MX-1 breast xenograft, nude mice, tumor weight T/C
Assay: NCI In Vivo Anticancer Drug Screen. Data for tumor model Human Mammary Carcinoma MX-1 Xenograft (intrarenal inoculation) in NU/NU Swiss (nude) mice
Settings: endpoint: mean tumor weight change, higher = larger tumour
In short: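 Mice carrying the implanted tumor receive either test agent or vehicle. Tumor size or survival is then recorded for both groups. Results are stated as the treated-to-control quotient.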

[1] = dose: 12.5 mg/kg/injection, schedule: Q01DX010 (sc), vehicle: saline with Tween-80
[2] = dose: 25.0 mg/kg/injection, schedule: Q04DX003 (sc), vehicle: saline
[3] = dose: 25.0 mg/kg/injection, schedule: Q04DX003 (sc), vehicle: suspension in saline
[4] = dose: 50.0 mg/kg/injection, schedule: Q04DX003 (sc), vehicle: saline
[5] = dose: 50.0 mg/kg/injection, schedule: Q04DX003 (sc), vehicle: suspension in saline
[6] = dose: 100.0 mg/kg/injection, schedule: Q04DX003 (sc), vehicle: saline with Tween-80
[7] = dose: 100.0 mg/kg/injection, schedule: Q04DX003 (sc), vehicle: saline
[8] = dose: 100.0 mg/kg/injection, schedule: Q04DX003 (sc), vehicle: suspension in saline
[9] = dose: 300.0 mg/kg/injection, schedule: Q04DX003 (sc), vehicle: saline with Tween-80
[10] = dose: 600.0 mg/kg/injection, schedule: Q04DX003 (sc), vehicle: saline with Tween-80
[11] = dose: 2400.0 mg/kg/injection, schedule: Q04DX003 (sc), vehicle: saline with Tween-80
[12] = dose: 25.0 mg/kg/injection, schedule: Q04DX003 (sc), vehicle: Klucel (hydroxypropylcellulose) (HPC)
[13] = dose: 300.0 mg/kg/injection, schedule: Q04DX003 (sc), vehicle: Klucel (hydroxypropylcellulose) (HPC)
[14] = dose: 600.0 mg/kg/injection, schedule: Q04DX003 (sc), vehicle: Klucel (hydroxypropylcellulose) (HPC)
[15] = dose: 1200.0 mg/kg/injection, schedule: Q04DX003 (sc), vehicle: Klucel (hydroxypropylcellulose) (HPC)
[16] = dose: 2400.0 mg/kg/injection, schedule: Q04DX003 (sc), vehicle: Klucel (hydroxypropylcellulose) (HPC)

## CN(N=O)C(N)=O
[1]
  T/C: 41 % of control
dose: 12.5 mg/kg/injection, schedule: Q04DX003 (sc), vehicle: saline
  T/C: 83 % of control
[2]
  T/C: 54 % of control
[3]
  T/C: 54 % of control
dose: 50.0 mg/kg/injection, schedule: Q04DX003 (sc), vehicle: saline with Tween-80
  T/C: 17 % of control
[4]
  T/C: 6 % of control
[5]
  T/C: 63 % of control
[6]
  T/C: -68 % of control
[7]
  T/C: -100 % of control
[8]
  T/C: 17 % of control

## CNC(=O)OCc1nc(SC)n(C)c1COC(=O)NC
dose: 50.0 mg/kg/injection, schedule: Q04DX003 (ip), vehicle: saline
  T/C: 8 % of control
dose: 100.0 mg/kg/injection, schedule: Q04DX003 (ip), vehicle: saline
  T/C: 3 % of control
dose: 200.0 mg/kg/injection, schedule: Q04DX003 (ip), vehicle: saline
  T/C: -56 % of control

## CC(C)(C[NH-])C[NH-].[Cl][Pt+2][Cl]
dose: 1.5 mg/kg/injection, schedule: Q04DX003 (ip), vehicle: other
  T/C: 117 % of control
dose: 1.5 mg/kg/injection, schedule: Q04DX003 (ip), vehicle: water
  T/C: 4 % of control
dose: 3.0 mg/kg/injection, schedule: Q04DX003 (ip), vehicle: other
  T/C: 112 % of control
dose: 3.0 mg/kg/injection, schedule: Q04DX003 (ip), vehicle: water
  T/C: -58 % of control
dose: 6.0 mg/kg/injection, schedule: Q04DX003 (ip), vehicle: water
  T/C: -84 % of control

## COc1ccc(S(=O)(=O)N/N=C/C(=O)O)cc1
[1]
  T/C: 116 % of control

## Nc1nc(=S)c2ncn(C3CC(O)C(CO)O3)c2[nH]1 (stereo unspecified)
dose: 0.94 mg/kg/injection, schedule: Q04DX003 (sc), vehicle: saline with Tween-80
  T/C: 97 % of control
dose: 1.88 mg/kg/injection, schedule: Q04DX003 (sc), vehicle: saline with Tween-80
  T/C: 81 % of control
dose: 3.75 mg/kg/injection, schedule: Q04DX003 (sc), vehicle: saline with Tween-80
  T/C: 97 % of control
dose: 7.5 mg/kg/injection, schedule: Q04DX003 (sc), vehicle: saline with Tween-80
  T/C: 87 % of control
dose: 50.0 mg/kg/injection, schedule: Q01DX010 (sc), vehicle: Klucel (hydroxypropylcellulose) (HPC)
  T/C: 64 % of control
dose: 100.0 mg/kg/injection, schedule: Q01DX010 (sc), vehicle: Klucel (hydroxypropylcellulose) (HPC)
  T/C: 122 % of control

## CCCCCCC(=O)CC(SCC)c1ccccc1Cl (stereo unspecified)
[9]
  T/C: 75 % of control
[10]
  T/C: 88 % of control
dose: 1200.0 mg/kg/injection, schedule: Q04DX003 (sc), vehicle: saline with Tween-80
  T/C: 72 % of control
[11]
  T/C: 96 % of control

## CNC(=O)ON(C(C)=O)C(=O)NC
[4]
  T/C: 69 % of control
dose: 100.0 mg/kg/injection, schedule: Q01DX010 (sc), vehicle: water
  T/C: 108 % of control
dose: 150.0 mg/kg/injection, schedule: Q01DX010 (sc), vehicle: water
  T/C: 67 % of control
dose: 200.0 mg/kg/injection, schedule: Q01DX010 (sc), vehicle: water
  T/C: 85 % of control
dose: 200.0 mg/kg/injection, schedule: Q04DX003 (sc), vehicle: saline
  T/C: 16 % of control

## NC(=S)c1cn(C2OC(CO)C(O)C2O)c2ncnc(N)c12 (stereo unspecified)
dose: 6.25 mg/kg/injection, schedule: Q04DX003 (sc), vehicle: suspension in saline
  T/C: 50 % of control
dose: 12.5 mg/kg/injection, schedule: Q04DX003 (sc), vehicle: suspension in saline
  T/C: 9 % of control

## CC1=C(/C=C/C(C)=C/C=C/C(C)=C/CO)C(C)(C)CCC1
dose: 200.0 mg/kg/injection, schedule: Q04DX003 (sc), vehicle: saline with Tween-80
  T/C: 89 % of control
dose: 400.0 mg/kg/injection, schedule: Q04DX003 (sc), vehicle: saline with Tween-80
  T/C: 112 % of control
dose: 800.0 mg/kg/injection, schedule: Q04DX003 (sc), vehicle: saline with Tween-80
  T/C: 84 % of control
dose: 1600.0 mg/kg/injection, schedule: Q04DX003 (sc), vehicle: saline with Tween-80
  T/C: 96 % of control

## O=NN(CCF)C(=O)NC1CCCCC1
dose: 3.12 mg/kg/injection, schedule: Q04DX003 (sc), vehicle: Klucel (hydroxypropylcellulose) (HPC)
  T/C: 119 % of control
dose: 6.25 mg/kg/injection, schedule: Q04DX003 (sc), vehicle: Klucel (hydroxypropylcellulose) (HPC)
  T/C: 88 % of control
dose: 12.5 mg/kg/injection, schedule: Q04DX003 (sc), vehicle: Klucel (hydroxypropylcellulose) (HPC)
  T/C: 91 % of control
[12]
  T/C: 92 % of control

## O=Cc1ccc(O)c(O)c1
[9]
  T/C: 181 % of control

## CCOC(OCC)C(=O)OCC(=O)[C@]1(O)Cc2c(O)c3c(c(O)c2[C@@H](OC2CC(N)C(O)C(C)O2)C1)C(=O)c1c(OC)cccc1C3=O (stereo partly specified)
dose: 4.0 mg/kg/injection, schedule: Q01DX010 (sc), vehicle: water
  T/C: 27 % of control and 44 % of control

## C=CCOCC1CO1 (stereo unspecified)
dose: 300.0 mg/kg/injection, schedule: Q04DX003 (sc), vehicle: saline
  T/C: 72 % of control

## COc1cc(C(=O)c2cc3c(cc2C)OCO3)cc(OC)c1OC
dose: 150.0 mg/kg/injection, schedule: Q04DX003 (sc), vehicle: Klucel (hydroxypropylcellulose) (HPC)
  T/C: 46 % of control
[13]
  T/C: 44 % of control
[14]
  T/C: 43 % of control
[15]
  T/C: 53 % of control

## Oc1c(Cl)cc(Cl)cc1C1N2CCCCC2C2c3cccn3-c3ccccc3N21 (stereo unspecified)
[13]
  T/C: 105 % of control
[14]
  T/C: 66 % of control
[15]
  T/C: 88 % of control
[16]
  T/C: 82 % of control

## N=c1c(C(=O)OCc2ccccc2)ncc(CCl)n1O
[10]
  T/C: 89 % of control
[11]
  T/C: 72 % of control

## CN(C)c1ccc2c(N(C)C)cc(N(C)C)nc2c1
dose: 18.75 mg/kg/injection, schedule: Q04DX003 (sc), vehicle: Klucel (hydroxypropylcellulose) (HPC)
  T/C: 78 % of control
dose: 37.5 mg/kg/injection, schedule: Q04DX003 (sc), vehicle: Klucel (hydroxypropylcellulose) (HPC)
  T/C: 84 % of control
dose: 75.0 mg/kg/injection, schedule: Q04DX003 (sc), vehicle: Klucel (hydroxypropylcellulose) (HPC)
  T/C: 82 % of control

## CC(C)(C)C1CCCCC1
[13]
  T/C: 101 % of control
[14]
  T/C: 89 % of control
[15]
  T/C: 75 % of control
[16]
  T/C: 65 % of control

## CC1(O)CC23CC(O)C4(O)C(CC(O)C4(C)C)C(C)(O)C2CCC1C3O (stereo unspecified)
dose: 0.25 mg/kg/injection, schedule: Q04DX003 (sc), vehicle: Klucel (hydroxypropylcellulose) (HPC)
  T/C: 162 % of control

## CSc1ncc2ncn(C3OC(CO)C(O)C3O)c2n1 (stereo unspecified)
[13]
  T/C: 56 % of control
[14]
  T/C: 59 % of control
[15]
  T/C: 37 % of control
[16]
  T/C: 68 % of control

## C/C=C(\C)C(=O)OC1C(C)=C2C(C1OC(=O)CCCCC)C(C)(OC(C)=O)CC(OC(=O)CCC)C1(O)C2OC(=O)C1(C)O (stereo unspecified)
dose: 2.0 mg/kg/injection, schedule: Q04DX003 (ip), vehicle: Klucel (hydroxypropylcellulose) (HPC)
  T/C: 52 % of control

## C=C(C)C(=NC(C)(C)C)Nc1ccccc1
[6]
  T/C: 101 % of control

## Nc1nc(N)c2cc(CNc3ccc(C(=O)NC(CC(=O)O)CC(=O)O)cc3)ccc2n1
[12]
  T/C: 86 % of control
dose: 50.0 mg/kg/injection, schedule: Q04DX003 (sc), vehicle: Klucel (hydroxypropylcellulose) (HPC)
  T/C: 96 % of control
dose: 100.0 mg/kg/injection, schedule: Q04DX003 (sc), vehicle: Klucel (hydroxypropylcellulose) (HPC)
  T/C: 75 % of control
dose: 200.0 mg/kg/injection, schedule: Q04DX003 (sc), vehicle: Klucel (hydroxypropylcellulose) (HPC)
  T/C: 85 % of control

## Cc1c2cc[n+](CCN3CCCCC3)cc2c(C)c2c1[nH]c1ccc(O)cc12
[3]
  T/C: 159 % of control
[5]
  T/C: 163 % of control
[8]
  T/C: 159 % of control

## c1cc(-c2cc3ccc(C4=NCCN4)cc3[nH]2)ccc1C1=NCCN1
[2]
  T/C: 66 % of control
[4]
  T/C: 73 % of control
[7]
  T/C: 50 % of control

## C=C1C(=O)C2=CC1CCC(=O)C1(C)CCC(OC(C)=O)C(C)(C)C1CC2O (stereo unspecified)
dose: 30.0 mg/kg/injection, schedule: Q04DX003 (sc), vehicle: Klucel (hydroxypropylcellulose) (HPC)
  T/C: 107 % of control
dose: 60.0 mg/kg/injection, schedule: Q04DX003 (sc), vehicle: Klucel (hydroxypropylcellulose) (HPC)
  T/C: 69 % of control
dose: 120.0 mg/kg/injection, schedule: Q04DX003 (sc), vehicle: Klucel (hydroxypropylcellulose) (HPC)
  T/C: 42 % of control

## O=C(O)c1ccc(C(=O)O)c(C(=O)O)c1.[NH-]C1CCCCC1[NH-].[Pt+2]
dose: 3.12 mg/kg/injection, schedule: Q01DX010 (sc), vehicle: sodium bicarbonate
  T/C: 10 % of control and 27 % of control
dose: 6.25 mg/kg/injection, schedule: Q01DX010 (sc), vehicle: sodium bicarbonate
  T/C: 1 % of control and 2 % of control
